# In publication PMC7435868, “Structure-Based Virtual Screening, Synthesis and Biological Evaluation of Potential FAK-FAT Domain Inhibitors for Treatment of Metastatic Cancer” (Molecules, 2020):
# Experiments:
# [1] = test system: MDA-MB-231; assay: Cell viability assay (CellTiter Glo), MDA-MB-231; format: cell-based; conditions: Homo sapiens, 72 h incubation, mean of independent triplicate experiments, read-out: In vitro anti-proliferative activity IC50, MDA-MB-231 ER- PR- HER-
# Method: (§1) The antiproliferative activity of compound I as well as its newly synthesised analogues (5a–i) was evaluated in vitro against the three human breast cancer cell lines MDA-MB-231 (TNBC), T47D (ER^+, HER^−), and BT474 (ER^+, HER^+) as well as a human pancreatic cancer cell line MIAPaCa2. The seeding of the corresponding cell lines started one day before incubation, which lasted for 72 h with the different concentrations of the tested compounds. CellTiter Glo reagent (25 μL) was added to the cell plate. The luminescence was analysed after 10 min using a PerkinElmer Envision instrument. The test compounds were used at ten different triplicate concentrations in half log increments up to 100 μM.
# [2] = test system: T47D; assay: Cell viability assay (CellTiter Glo), T47D; format: cell-based, human; conditions: Homo sapiens, T47D, 72 h, 72 h incubation, mean of independent triplicate experiments, read-out: In vitro anti-proliferative activity IC50, T47D ER+ PR+/- HER-
# Method: as §1
# [3] = test system: BT474; assay: Cell viability assay (CellTiter Glo), BT474; format: cell-based, human; conditions: Homo sapiens, BT-474, 72 h, 72 h incubation, mean of independent triplicate experiments, read-out: In vitro anti-proliferative activity IC50, BT474 ER+ PR+/- HER+
# Method: as §1
# [4] = test system: MIAPaCa2; assay: Cell viability assay (CellTiter Glo), MIAPaCa2; format: cell-based; conditions: Homo sapiens, MIA PaCa-2, 72 h incubation, mean of independent triplicate experiments, read-out: In vitro anti-proliferative activity IC50, MIAPaCa2
# Method: as §1
# [5] = Turbidimetric aqueous solubility; format: physicochemical; conditions: 37 °C, 2 h
# Method: Both the estimated precipitation range (lower and upper bound) and a mid-range value were measured. Nicardipine and pyrene were used as control compounds.
# The test compound was diluted in buffer to give a range of concentrations (1, 3, 10, 30, and 100 μM; final DMSO concentration 1%) and incubated at 37 °C for 2 hr.
# The test compound (10 mM in DMSO) was serially diluted to give solutions of 0.1, 0.3, 1, and 3 mM in DMSO. Each test compound concentration was then further diluted 1 to 100 in buffer (typically 0.01 M phosphate buffered saline pH 7.4) so that the final DMSO concentration was 1%, and the final test compound concentrations were 1, 3, 10, 30, and 100 μM. The experiment was performed at 37 °C and each concentration was incubated in 7 replicate wells. The plates were incubated for 2 h at 37 °C before the absorbance was measured at 620 nm. Nicardipine and pyrene were included as control compounds. The solubility of nicardipine is pH dependent whereas the solubility of pyrene is pH independent.
# An estimated precipitation range (lower and upper bound) and a calculated mid-range value were returned, along with any relevant comments, in the form of an Excel spreadsheet.
# [6] = test system: MDA-MB-231, T47D, BT474, and MIAPaCa2; assay: Cell viability assay, statements across the four cell lines; format: cell-based, human; conditions: three human breast and one pancreatic cancer cell line, up to 100 μM
# Method: as §1
# [7] = test system: MDA-MB-231 cells; assay: Cell proliferation assay (7-day cell counting); format: cell-based, human; conditions: 7-day proliferation, 1 μM, vs vehicle-only control
# Method: To assess proliferation, cells were seeded at 4.2 × 10^5 cells/mL in 24-well plates. Following 24 h, the media were replaced with fresh RPMI + 5% FCS, in the presence or absence of treatments and a selection of wells counted (day 0 counts). Cells were subsequently counted each day up to 7 days to assess proliferation. Briefly, this entailed the removal of old media and the addition of trypsin/EDTA in order to lift cells before passing gently through a 25 G needle to achieve a single-cell suspension. The resulting solution was then added to isoton in a counting cup and the cell number was determined using a Coulter Multisizer III (Beckman Coulter Life Sciences, Indianopolis, IN, USA) Each well was counted twice with all conditions performed in triplicate.
# [8] = test system: MDA-MB-231 cells; assay: Boyden chamber migration; format: cell-based, human; conditions: 18 h Boyden chamber
# Method: Migration was assessed utilising 24-well, transmembrane permeable support plates (Corning Lifesciences, Corning, New York, NY, USA) with 6.5 mm microporous membrane (8 μm pore size) inserts, each coated with 10 μg/mL fibronectin in sterile PBS. Inserts were placed into wells containing RPMI + 5% FCS (± treatments), before cells in serum-free RPMI were seeded into the top portion of each insert at a density of 50,000 cells/mL. Cells were then incubated at 37 °C and 5% CO2 for 18 h. After this migratory period was completed, cells were fixed to the underside of the inserts in 3.7% PFA in PBS and stained with 0.5% crystal violet solution. Resulting inserts were then imaged using a standard light microscope.
# [9] = biological target: T1, FAK (Homo sapiens, UniProt Q05397); assay: Western blotting of FAK activity; format: cell-based; conditions: MDA-MB-231, Western blot
# T1 construct: in an in vitro model of TNBC, MDA-MB-231; endogenous in cells; host or cells: MDA-MB-231 (human triple negative breast cancer cells)
# T1 sequence (Q05397 whole entry): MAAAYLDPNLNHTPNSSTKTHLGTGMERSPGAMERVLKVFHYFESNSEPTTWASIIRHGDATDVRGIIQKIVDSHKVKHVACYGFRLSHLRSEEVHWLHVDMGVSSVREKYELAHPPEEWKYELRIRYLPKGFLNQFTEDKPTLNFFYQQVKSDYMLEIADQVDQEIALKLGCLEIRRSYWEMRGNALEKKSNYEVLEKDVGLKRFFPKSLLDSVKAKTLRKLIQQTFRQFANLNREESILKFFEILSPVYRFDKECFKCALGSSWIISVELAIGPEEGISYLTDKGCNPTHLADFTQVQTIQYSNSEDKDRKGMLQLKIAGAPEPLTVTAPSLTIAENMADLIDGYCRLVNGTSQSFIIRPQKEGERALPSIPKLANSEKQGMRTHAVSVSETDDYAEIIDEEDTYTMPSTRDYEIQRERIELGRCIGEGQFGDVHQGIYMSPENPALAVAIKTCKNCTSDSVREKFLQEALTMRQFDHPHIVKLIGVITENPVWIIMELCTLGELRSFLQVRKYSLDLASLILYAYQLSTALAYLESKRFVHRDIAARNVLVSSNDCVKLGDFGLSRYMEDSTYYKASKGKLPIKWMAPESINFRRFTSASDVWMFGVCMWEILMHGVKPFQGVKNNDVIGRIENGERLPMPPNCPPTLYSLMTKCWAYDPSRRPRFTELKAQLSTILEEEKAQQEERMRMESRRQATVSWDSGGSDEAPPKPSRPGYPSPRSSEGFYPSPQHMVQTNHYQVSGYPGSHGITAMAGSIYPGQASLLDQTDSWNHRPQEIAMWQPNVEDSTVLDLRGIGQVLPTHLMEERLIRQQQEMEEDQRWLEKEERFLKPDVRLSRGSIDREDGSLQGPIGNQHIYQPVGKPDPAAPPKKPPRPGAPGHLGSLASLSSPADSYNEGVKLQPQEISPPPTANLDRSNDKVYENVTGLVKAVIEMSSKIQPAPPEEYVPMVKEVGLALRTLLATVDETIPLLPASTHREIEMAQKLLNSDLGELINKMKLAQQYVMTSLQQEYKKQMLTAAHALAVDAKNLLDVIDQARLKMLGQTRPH
# Source text: This was expected, given that this compound limits protein–protein scaffolding interaction rather than kinase activity and subsequent phosphorylation of key FAK residues.
# [10] = test system: MDA-MB-231 cells; assay: Immunofluorescence of active FAK (FAK Y861) and vinculin; format: cell-based, human
# Method: The resulting fixed cells were subsequently permeabilised with 0.2% Triton-X100 in PBS for 8 min. This was proceeded by a 40 min block in 10% normal goat serum (in 1% BSA in PBS) prior to 30 min primary antibody incubation. Both FAK^Y861 and vinculin antibodies were diluted to working concentration (1:100 and 1:200, respectively) in 1% BSA in PBS. […] Slides were viewed using a 63X oil immersion lens on a Leica DM IRE2 microscope (Leica Microsystems, Wetzlar, Germany).
# [11] = biological target: hERG potassium channel (Homo sapiens, UniProt Q12809); assay: hERG channel inhibition (IonWorks automated patch clamp, CHO-hERG cells)
# Chain of hERG potassium channel (Q12809 whole entry): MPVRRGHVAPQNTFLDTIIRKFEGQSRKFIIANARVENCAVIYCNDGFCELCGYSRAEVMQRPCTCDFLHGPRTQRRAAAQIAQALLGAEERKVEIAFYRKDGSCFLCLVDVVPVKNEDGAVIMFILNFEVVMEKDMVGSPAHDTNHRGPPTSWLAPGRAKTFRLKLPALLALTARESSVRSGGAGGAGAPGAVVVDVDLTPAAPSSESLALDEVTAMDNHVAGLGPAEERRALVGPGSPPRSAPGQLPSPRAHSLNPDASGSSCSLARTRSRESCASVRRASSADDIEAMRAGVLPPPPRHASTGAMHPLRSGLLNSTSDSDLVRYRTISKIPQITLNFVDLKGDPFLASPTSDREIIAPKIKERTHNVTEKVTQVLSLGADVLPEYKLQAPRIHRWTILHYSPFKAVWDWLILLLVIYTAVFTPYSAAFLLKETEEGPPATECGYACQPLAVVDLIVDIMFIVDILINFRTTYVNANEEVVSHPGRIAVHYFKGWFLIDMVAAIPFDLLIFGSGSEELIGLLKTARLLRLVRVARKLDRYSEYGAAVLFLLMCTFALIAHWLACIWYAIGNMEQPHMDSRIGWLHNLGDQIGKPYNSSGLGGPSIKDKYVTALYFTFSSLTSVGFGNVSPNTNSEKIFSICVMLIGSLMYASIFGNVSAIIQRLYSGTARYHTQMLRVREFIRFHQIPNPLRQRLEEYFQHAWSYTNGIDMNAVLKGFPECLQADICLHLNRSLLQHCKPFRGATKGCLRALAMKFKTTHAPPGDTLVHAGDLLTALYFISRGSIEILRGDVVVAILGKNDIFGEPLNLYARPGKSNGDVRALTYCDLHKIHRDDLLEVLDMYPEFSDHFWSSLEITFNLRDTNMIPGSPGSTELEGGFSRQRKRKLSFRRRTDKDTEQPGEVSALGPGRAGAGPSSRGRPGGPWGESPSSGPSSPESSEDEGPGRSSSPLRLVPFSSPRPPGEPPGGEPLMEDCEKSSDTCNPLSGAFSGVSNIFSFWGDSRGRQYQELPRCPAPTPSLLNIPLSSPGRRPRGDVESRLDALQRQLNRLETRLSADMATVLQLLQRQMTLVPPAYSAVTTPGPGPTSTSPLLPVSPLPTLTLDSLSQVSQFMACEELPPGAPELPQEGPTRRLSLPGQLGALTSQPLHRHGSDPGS
# Method: Mammalian cells expressing the hERG potassium channel were dispensed into 384-well planar arrays and hERG tail-currents measured by whole-cell voltage-clamping. A range of concentrations of the test compound was then added to the cells and a second recording of the hERG current was made. […] IC50 is delivered, standard error (SE IC50), and n (number of data points used to calculate IC50) for the test compound. The experiments were performed on an Ion Works TM automated patch clamp instrument (Molecular Devices LLC (San Jose, California, United States)), which simultaneously performs electrophysiology measurements for 48 single cells in a specialised 384-well plate (PatchPlateTM(manufacturer, city, state if USA or Canada, country)). All cell suspensions, buffers, and test compound solutions were at room temperature during the experiment.
# The cells used were Chinese hamster ovary (CHO) cells stably transfected with hERG (cell-line obtained from Cytomyx, UK). A single-cell suspension was prepared in extracellular solution (Dulbecco’s phosphate buffered saline with calcium and magnesium pH 7.2) and aliquots added automatically to each well of a Patch Plate TM. The cells were then positioned over a small hole at the bottom of each well by applying a vacuum beneath the plate to form an electrical seal. The vacuum was applied through a single compartment common to all wells which was filled with intracellular solution (buffered to pH 7.2 with HEPES). The resistance of each seal was measured via a common ground-electrode in the intracellular compartment and individual electrodes placed into each of the upper wells.
# Electrical access to the cell was then achieved by circulating a perforating agent, amphotericin B, underneath the PatchPlateTM. The pre-compound hERG current was then measured. An electrode was positioned in the extracellular compartment and a holding potential of −80 mV applied for 15 s. The hERG channels were then activated by applying a depolarising step to +40 mV for 5 s and then clamped at −50 mV for 4 s to elicit the hERG tail current, before returning to −80 mV for 0.3 s.
# The Ion Works TM instrument automatically adds test compound dilutions to the upper wells of the PatchPlateTM. The test compound was left in contact with the cells for 300 s before recording currents using the same voltage-step protocol as in the pre-compound scan.
# Each concentration was tested in 4 replicate wells on the PatchPlateTM (maximum of 24 data points). Filters were applied to ensure only acceptable cells were used to assess hERG inhibition.
# For each replicate, the hERG response was calculated using the following equation:% hERG response = [Post-compound current (nA)/Pre-compound current (nA)] × 100(5)
# [12] = buffered aqueous solution (PBS pH 7.4, 1% DMSO)
# [13] = MDA-MB-231, 1 h serum stimulated
compound,measurement,setting,value
CC(C)(C)c1ccc(C(CN)c2ccc(Cl)cc2)cc1 (stereo not drawn) [Compound I],IC50,[1],6.37 µM
same,IC50,[2],6.71 µM
same,IC50,[3],2.67 µM
same,IC50,[4],5.66 µM
same,"Estimated Precipitation Range, Calculated Mid-Range",[5]; [12],>100 µM
same,"Estimated Precipitation Range, Lower Bound",[5]; [12],100 µM
same,"Estimated Precipitation Range, Upper Bound",[5]; [12],>100 µM
same,Aqueous solubility (in words),[5]; turbidimetric,high aqueous solubility
same,Anti-proliferative activity (in words) across the four cell lines,[6],low micromolar antiproliferative activity
same,Proliferation rates of MDA-MB-231 cells,[7],significantly reduce proliferation rates
same,Serum-stimulated migration,[8],significant reduction in serum-stimulated migration
same,Activity of FAK Y397 / FAK Y925 (phosphorylation),[9],no significant changes
same,Stability of total FAK protein,[9],no changes in the stability of total FAK protein
same,Number of focal adhesions/cell,[10]; [13],significant increase in focal adhesions
same,Size of focal adhesions,[10]; [13],no effect on the size of focal adhesions
same,Localisation of FAK to the cell periphery,"[10]; MDA-MB-231, 1 h serum stimulated, vs vehicle-only controls",increased localisation of FAK to the cell periphery
same,Active FAK throughout the cytoplasm,"[10]; MDA-MB-231, versus PF271 treated cells",significantly more active FAK displayed throughout the cytoplasm
same,IC50,[11],5.47 µM
